Data as given in US12053490B2, “Methods and compositions for treating CD33+ cancers and improving in vivo persistence of chimeric antigen receptor T cells” (ST. JUDE CHILDREN'S RESEARCH HOSPITAL, INC., priority 2017, dated 2024).

System: CD33 CAR T cells
Assay: Inhibitor treatment during ex vivo culture
Format: cell-based, human
Conditions: for total CD8^+ CAR T cells / T cell expansion: 4 days of inhibitor treatment; for proliferating CD8^+ cells that remained CCR7^+: CellTrace Violet, control T cells about 41%
Method: Inhibitor treatment during ex vivo culture: CD33 CAR or control transduced T cells were labeled with CellTrace Violet (ThermoFisher) 5 days after their initial activation. […] Cells were analyzed 4 days later by flow cytometry.
Day 1: Separated PBMCs from apheresis ring of donor. Enriched human T cells by Pan T cell negative selection kit. Activate human T cells by anti-human CD3 and anti-human CD28 (1 ug/ml) coated plates overnight.
Day2: Transduced human T cells with anti-CD33 CAR gamma-retrovirus or MSCV control by retronectin coated non-tissue culture plate.
Day3: Resuspend the cells and plate them in the IL-2 RPMI medium in the tissue culture plate.
100U/ml IL-2 was added to cultures every 2 days. Cells were analyzed 4 days later by flow Cytometry.

[1] = 4 days, LY294002 10 μM, IC87114 10 μM, API-2 1 μM, rapamycin 50 nM, PP242 1 μM, DCA 10 mM, vs untreated CD33 CAR T cells

SMILES	total CD8^+ CAR T cells / T cell expansion	percent of CD8^+ TN and TCM cells [1]	proliferating CD8^+ cells that remained CCR7^+ (4 days)	percentage of CCR7^+ cells among undivided CD8^+ cells (4 days)	CD8^+ TEM or TEFF cell numbers (4 days, 10 μM)	number of CD8^+ TN and TCM cells (4 days, same concentrations, vs untreated CD33 CAR T cells)	CD8^+ TEM or TEFF cell percent (Example 4: 4 days, different concentrations)	percent of CD8^+ TN and TCM cells (Example 4: 4 days, different concentrations, vs untreated CD33 CAR T cells)	number of CD8^+ TEFF cells (4 days, rapamycin 50 nM, PP242 1 μM)
O=C(O)C(Cl)Cl [DCA, dichloroacetic acid]	significantly inhibited T cell expansion	increased	–	–	–	–	–	–	–
O=c1cc(N2CCOCC2)oc2c(-c3ccccc3)cccc12 [LY294002]	–	–	about 43%	–	–	–	–	–	–
Cc1ccccc1-n1c(Cn2cnc3c(N)ncnc32)nc2cccc(C)c2c1=O [IC87114]	–	increased significantly	~33%	did not alter	did not significantly alter	increased significantly	significant decrease	increased significantly	–
CC(C)n1nc(-c2cc3cc(O)ccc3[nH]2)c2c(N)ncnc21 [PP242]	substantial decrease	no detectable effect	–	–	–	–	–	–	decreased
